Patent US7749984B2, “Computer-based model for identification and characterization of non-competitive inhibitors of nicotinic acetylcholine receptors and related ligand-gated ion channel receptors” (priority 2003, dated 2010)
Where two headings read alike, the source gives them in different places.

Columns and labels:
[1] = molecular target: T1, α3β4 nAChR (Rattus norvegicus, UniProt P04757+P12392); assay: biochemical; type: binding; parameters: host or cells: HEK293 (KXα3β4R2)
[2] = molecular target: T1, α3β4 nAChR; assay: Nicotine-stimulated 86Rb+ efflux assay, KXα3β4R2 cell line; type: cell-based; parameters: host or cells: HEK293 (KXα3β4R2)
Procedure: After the prediction has been done based on clustering the actual values of IC50 were determined using the nicotine-stimulated ^86Rb^+ efflux assay on cell line KXα3β4R2.

[3] = tested on: nAChR, PC-12 cells; assay: Rb+ efflux assay, PC-12 cells; type: cell-based, rat; details: cell line PC-12
[4] = tested on: nAChR, SH-SY5Y cells; assay: Rb+ efflux assay, SH-SY5Y cells; type: cell-based, human; details: cell line SH-SY5Y
[5] = molecular target: K177 (α4β2) (Homo sapiens, UniProt P17787+P43681); assay: Rb+ efflux assay, K177 cells
[6] = molecular target: T1, α3β4 nAChR; details: nicotine concentration of ~300 μM or higher; cited from earlier work
[7] = α3β4 nAChR, 10 μM, 20 μl injected, ammonium acetate 10 mM pH 7.4/methanol 85:15
[8] = nicotine-stimulated 86Rb+ efflux, cell line KXα3β4R2, read-out: IC50
[9] = α3β4 nAChR, NLC, read-out: koff dissociation constant rate
[10] = α3β4 nAChR, NLC, read-out: kon association constant rate
[11] = α3β4 nAChR, NLC, read-out: log K chromatographic equilibrium constant (converted)
[12] = IC50 of Rb+ efflux, cell line KXα3β4R2

T1 sequence (P04757 26-499): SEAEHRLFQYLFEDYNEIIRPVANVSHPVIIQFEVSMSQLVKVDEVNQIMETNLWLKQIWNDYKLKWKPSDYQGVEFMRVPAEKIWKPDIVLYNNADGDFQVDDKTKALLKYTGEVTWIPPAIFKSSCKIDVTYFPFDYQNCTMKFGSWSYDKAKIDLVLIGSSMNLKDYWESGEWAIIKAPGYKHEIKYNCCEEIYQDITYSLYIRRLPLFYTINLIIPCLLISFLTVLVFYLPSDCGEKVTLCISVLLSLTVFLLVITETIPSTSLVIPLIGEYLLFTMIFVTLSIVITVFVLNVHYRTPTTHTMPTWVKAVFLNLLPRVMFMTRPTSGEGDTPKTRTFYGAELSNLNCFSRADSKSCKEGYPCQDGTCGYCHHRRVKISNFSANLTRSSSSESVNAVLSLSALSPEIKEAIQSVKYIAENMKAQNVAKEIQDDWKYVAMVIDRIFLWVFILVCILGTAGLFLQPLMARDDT
T1 sequence (P12392 21-495): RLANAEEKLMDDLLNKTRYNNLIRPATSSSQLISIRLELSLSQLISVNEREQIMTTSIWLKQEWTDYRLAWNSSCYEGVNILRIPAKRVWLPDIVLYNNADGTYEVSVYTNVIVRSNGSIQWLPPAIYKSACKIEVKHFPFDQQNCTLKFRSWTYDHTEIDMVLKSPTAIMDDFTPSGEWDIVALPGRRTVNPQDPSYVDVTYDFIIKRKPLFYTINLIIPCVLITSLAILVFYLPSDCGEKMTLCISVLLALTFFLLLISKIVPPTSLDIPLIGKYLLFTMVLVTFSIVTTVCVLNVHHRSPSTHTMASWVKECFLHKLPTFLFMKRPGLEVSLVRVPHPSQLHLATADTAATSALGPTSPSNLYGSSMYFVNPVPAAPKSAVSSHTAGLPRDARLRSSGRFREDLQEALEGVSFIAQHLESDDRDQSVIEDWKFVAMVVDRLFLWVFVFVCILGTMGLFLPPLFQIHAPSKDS
Chain of K177 (α4β2) (P43681 27-627): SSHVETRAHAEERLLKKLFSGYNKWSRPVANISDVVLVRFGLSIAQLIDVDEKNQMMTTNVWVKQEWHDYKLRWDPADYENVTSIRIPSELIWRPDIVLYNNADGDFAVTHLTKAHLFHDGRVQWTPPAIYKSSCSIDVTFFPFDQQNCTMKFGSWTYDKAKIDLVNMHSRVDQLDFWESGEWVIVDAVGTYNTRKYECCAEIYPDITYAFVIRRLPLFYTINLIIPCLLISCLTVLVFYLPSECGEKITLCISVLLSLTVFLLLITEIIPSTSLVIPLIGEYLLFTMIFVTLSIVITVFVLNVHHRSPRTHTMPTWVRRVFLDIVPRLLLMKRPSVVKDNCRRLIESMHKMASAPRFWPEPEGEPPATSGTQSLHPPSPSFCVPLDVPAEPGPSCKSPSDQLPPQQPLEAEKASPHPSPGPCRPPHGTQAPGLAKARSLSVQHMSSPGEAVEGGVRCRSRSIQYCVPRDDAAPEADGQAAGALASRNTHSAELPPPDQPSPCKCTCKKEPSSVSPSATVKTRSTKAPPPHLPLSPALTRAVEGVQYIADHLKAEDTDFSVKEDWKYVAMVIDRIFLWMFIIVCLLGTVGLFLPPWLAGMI
Chain of K177 (α4β2) (P17787 26-502): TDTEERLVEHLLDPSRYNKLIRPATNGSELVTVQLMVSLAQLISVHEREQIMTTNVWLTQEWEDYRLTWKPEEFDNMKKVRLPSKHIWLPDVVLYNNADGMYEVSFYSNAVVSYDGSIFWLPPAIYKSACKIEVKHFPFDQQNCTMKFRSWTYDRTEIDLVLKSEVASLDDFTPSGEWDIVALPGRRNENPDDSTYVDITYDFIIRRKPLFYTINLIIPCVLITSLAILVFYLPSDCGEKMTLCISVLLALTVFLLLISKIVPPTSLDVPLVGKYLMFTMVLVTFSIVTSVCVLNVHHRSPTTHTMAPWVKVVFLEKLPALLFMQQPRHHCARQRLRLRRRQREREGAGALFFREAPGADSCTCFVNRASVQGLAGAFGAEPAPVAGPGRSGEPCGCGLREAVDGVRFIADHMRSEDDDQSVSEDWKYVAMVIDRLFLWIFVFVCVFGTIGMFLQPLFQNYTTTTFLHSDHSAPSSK

SMILES | k′(NLC) retention capacity factor [1, 7] | koff [1, 9] | kon [1, 10] | Kd [1, 11] | further results
COc1ccc([C@@H]2Sc3ccccc3N(CCN(C)C)C(=O)[C@@H]2OC(C)=O)cc1 [dilthiazem] | 43.53 |  |  |  | logk′ ([1]; α3β4 nAChR): 1.64; koff dissociation constant rate ([1]; α3β4 nAChR, NLC): 1.60 s⁻¹; log K chromatographic equilibrium constant ([1]; α3β4 nAChR, NLC): 7.22 M^−1; IC50 ([2]; cell line KXα3β4R2, read-out: IC50 of Rb+ efflux): 2260 nM; IC50 [2, 8]: 2200 nM; IC50 ([2]; nicotine-stimulated 86Rb+ efflux, α3β4 nAChR, read-out: IC50): 2300 nM
COc1ccc(C(=O)O)cc1OC [dimethoxybenzoic ac., 3,4-dimethoxybenzoic acid] | 4.46 | 18.2 s⁻¹ | 9.8e+06 M⁻¹ s⁻¹ | 1860 nM | 
O=C(O)c1ccc([N+](=O)[O-])cc1[N+](=O)[O-] [dinitrobenzoic acid, 2,4-dinitrobenzoic acid] | 7.77 |  |  |  | Kd ([1]; log K chromatographic equilibrium constant, α3β4 nAChR, NLC): 1350 nM; koff dissociation constant rate ([1]; α3β4 nAChR, NLC): 12.12 s⁻¹
CC[n+]1c(-c2ccccc2)c2cc(N)ccc2c2ccc(N)cc21 [ethidium] | 191.82 | 0.18 s⁻¹ | 3.59e+07 M⁻¹ s⁻¹ | 5.01 nM | 
COc1ccc(CCN(C)CCCC(C#N)(c2cc(OC)c(OC)c(OC)c2)C(C)C)cc1OC (stereo not shown) [galapamil] | 75.93 |  |  |  | logk′ ([1]; α3β4 nAChR): 1.88; koff dissociation constant rate ([1]; α3β4 nAChR, NLC): 0.74 s⁻¹; log K chromatographic equilibrium constant ([1]; α3β4 nAChR, NLC): 7.43 M^−1; IC50 [2, 8]: 6400 nM
CNC1(c2ccccc2Cl)CCCCC1=O (stereo not shown) [ketamine] | 8.25 | 8.5 s⁻¹ | 3.84e+07 M⁻¹ s⁻¹ | 224 nM | IC50 [3]: 5200 nM; IC50 [4]: 1400 nM
COc1ccc(CC2c3cc(OC)c(OC)cc3CCN2C)cc1OC (stereo not shown) [laudanosine] | 22.87 | 2.18 s⁻¹ | 2.5e+07 M⁻¹ s⁻¹ | 87.1 nM | 
COc1ccc2c(c1)[C@@]13CCCC[C@H]1[C@@H](C2)N(C)CC3 [levomethorphan] | 35.81 | 1.55 s⁻¹ | 1.86e+07 M⁻¹ s⁻¹ | 83.2 nM | K′ ([1]; chromatographic (NLC and van't Hoff)): 35.81 (±0.15); Ka ([1]; chromatographic (NLC)): 12.01 (±0.23) μM^−1; koff ([1]; chromatographic (NLC), read-out: Koff): 1.55 s⁻¹; kon ([1]; chromatographic (NLC), read-out: Kon): 1.86e+07 M⁻¹ s⁻¹; Kd ([1]; chromatographic (NLC), read-out: logKa (converted)): 83.2 nM; ΔG° ([1]; chromatographic (van't Hoff)): −2.04 (±0.4) kcal mol^−1; ΔH° ([1]; chromatographic (van't Hoff)): −6.59 (±0.18) kcal mol^−1; ΔS° ([1]; chromatographic (van't Hoff)): −15.20 (0.6) cal mol^−1T^−1; IC50 ([2]; IC50, nicotine stimulated Rb+ efflux): 10900 nM; IC50 [2, 12]: 10900 nM
CNC1(C)C2CCC(C2)C1(C)C (stereo not shown) [mecamylamine] |  |  |  |  | k′(NLC) retention capacity factor ([1]; pH 7.4): 10.89
CC12CC3CC(C)(C1)CC(N)(C3)C2 [memantine] | 16.71 | 3.45 s⁻¹ | 1.88e+07 M⁻¹ s⁻¹ | 182 nM | IC50 [5]: 6600 nM
CCC(=O)C(CC(C)N(C)C)(c1ccccc1)c1ccccc1 (stereo not shown) [methadone] | 44.45 | 1.37 s⁻¹ | 1.59e+07 M⁻¹ s⁻¹ | 87.1 nM | IC50 [2, 12]: 1900 nM
CN[C@@H](C)Cc1ccccc1 [methamphetamine] | 8.38 | 6.81 s⁻¹ | 2.91e+07 M⁻¹ s⁻¹ | 234 nM | 
COC(=O)C1=C(C)NC(C)=C(C(=O)OCCN(C)Cc2ccccc2)C1c1cccc([N+](=O)[O-])c1 (stereo not shown) [nicardapine] |  |  |  |  | logk′ ([1]; α3β4 nAChR): 2.33; IC50 [2, 8]: 2500 nM
CN1CCCC1c1cccnc1 (stereo not shown) [nicotine] |  |  |  |  | maximum 86Rb+ efflux [6]: ~45 % of the amount loaded
COc1ccc(CCNCCCC(C#N)(c2ccc(OC)c(OC)c2)C(C)C)cc1OC (stereo not shown) [nor-verapamil] |  |  |  |  | enantioselectivity of binding towards nicotinic affinity column ([1]; chromatographic experiments and NLC data): did not exhibit noticeable differences between enantiomers; logk′ ([1]; α3β4 nAChR): 1.99; IC50 ([2]; IC50, nicotine-stimulated 86Rb+ efflux, cell line KXα3β4R2): 2600 nM; IC50 ([2]; IC50, nicotine-stimulated 86Rb+ efflux, α3β4 nAChR): 2100 nM; IC50 [2, 12]: 2600 nM
CCCCC1C(=O)N(c2ccccc2)N(c2ccccc2)C1=O [phenylbutazone] |  | 22.2 s⁻¹ | 8.7e+06 M⁻¹ s⁻¹ | 2570 nM | 
c1ccc(C2(N3CCCCC3)CCCCC2)cc1 [phenylcyclidine] | 24.06 | 2.69 s⁻¹ | 2.32e+07 M⁻¹ s⁻¹ | 115 nM | IC50 [2, 12]: 7000 nM; IC50 [4]: 5900 nM
